Laboratory results from paper PMC10054758, “A Structural-Reporter Group to Determine the Core Conformation of Sialyl Lewis^x Mimetics” (Molecules, 2023).
Like-named read-outs stand apart in the source and are kept apart here.

What was measured:
E-selectin [1] = target: T1, E-selectin (Homo sapiens, UniProt P16581); test: Microscale thermophoresis (MST) affinity measurement; format: binding; settings: for Kd: MST, 25 °C, labeled E-selectinSCR2
T1 construct: mixed 1:1 with a solution of 0.2 μM labeled E-SelectinSCR2; made in house
T1 sequence (P16581 22-301 limits assumed): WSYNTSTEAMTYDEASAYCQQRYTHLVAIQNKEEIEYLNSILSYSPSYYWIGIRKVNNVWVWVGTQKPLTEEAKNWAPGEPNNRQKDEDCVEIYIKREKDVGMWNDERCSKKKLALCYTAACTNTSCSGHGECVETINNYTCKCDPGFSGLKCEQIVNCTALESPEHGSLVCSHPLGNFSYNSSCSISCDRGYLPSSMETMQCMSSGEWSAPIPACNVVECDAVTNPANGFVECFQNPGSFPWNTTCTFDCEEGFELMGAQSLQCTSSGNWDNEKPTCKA
Experimental: E-selectin production (cloning, transfection, expression, and purification) and labeling were previously described for the E-selectinSCR6-IgGFc construct and for the E-selectinSCR2 construct.
E-selectinLEC2 was labeled using the amine reactive protein labeling kit BLUE-NHS as described in the Supporting Information. Buffer exchange and labeling were performed according to the manufacturer’s protocol. […] The labeled protein was dialyzed over night against assay buffer (10 mM HEPES pH 7.4, 150 mM NaCl, 1 mM CaCl2) using Slide-A-Lyzer dialysis cassettes (10 kDa MWCO). Protein concentration was determined by HPLC-UV against a BSA standard.
Microscale thermophoresis (MST) experiments were carried out at 25 °C with 100% LED power, 50% laser power, a laser on time of 30 s, and a laser off time of 5 sec using standard treated capillaries. Ligands were dissolved in assay buffer supplemented with 0.05% v/v Tween20 and titrated 1:1 for a total of 16 dilution steps. The dilution series of ligand was mixed 1:1 with a solution of 0.2 μM labeled E-SelectinSCR2 and incubated for 10 min at room temperature before measurement. Datapoints were normalized using the bound and unbound borders achieved by NanoTemper Analysis 1.2.205 software (NanoTemper Technologies GmbH, Munich, Germany) and analyzed/illustrated with GraphPad Prism 5.0 (GraphPad Software, La Jolla, CA, USA). The measurements were globally fitted using Equation (1) for single site binding. (1) PL=(CP+CL+KD) - (CP+CL+KD) - 4CPCL/2CP where [PL] is the protein–ligand complex concentration and KD is the dissociation constant. CP represents the total concentration of protein and CL the total concentration of ligand.

E-selectin [2] = target: T1, E-selectin; settings: literature data; cited from earlier work
E-selectin [3] = target: T1, E-selectin; test: E-selectin affinity, literature data; format: binding; settings: for ΔG (Gibbs Free Energy): calculated ΔG = -RT lnKD from literature KD
E-selectin [4] = target: T1, E-selectin; parameters: method as in PMID 22782926; settings: binding to E-selectin; cited from earlier work

SMILES: CC(C)[C@H]1CCC[C@@H](O[C@@H]2O[C@H](CO)[C@H](O)[C@H](O[C@@H](CC3CCCCC3)C(=O)O)[C@H]2O)[C@@H]1O[C@@H]1O[C@@H](C)[C@@H](O)[C@@H](O)[C@@H]1O [2d]
- Kd (E-selectin [1]): 6.8 µM

SMILES: CO[C@@H]1O[C@H](CO)[C@@H](O[C@@H]2O[C@H](CO)[C@H](O)[C@H](O[C@@H](CC3CCCCC3)C(=O)O)[C@H]2O)[C@H](O[C@@H]2O[C@@H](C)[C@@H](O)[C@@H](O)[C@@H]2O)[C@H]1NC(C)=O [compound 22]
- Kd (E-selectin [2]): 280 µM

SMILES: COCCOC[C@H]1CCC[C@@H](O[C@@H]2O[C@H](CO)[C@H](O)[C@H](O[C@@H](CC3CCCCC3)C(=O)O)[C@H]2O)[C@@H]1O[C@@H]1O[C@@H](C)[C@@H](O)[C@@H](O)[C@@H]1O [2l]
- Kd (E-selectin [1]): 31 µM

SMILES: C[C@@H]1O[C@@H](OCCO[C@@H]2O[C@H](CO)[C@H](O)[C@H](O[C@@H](CC3CCCCC3)C(=O)O)[C@H]2O)[C@@H](O)[C@H](O)[C@@H]1O [compound 21, reference compound]
- ΔG (Gibbs Free Energy) (E-selectin [3]): -3.148 kcal/mol
- Kd (E-selectin [2]): 4920 µM

SMILES: C[C@@H]1O[C@@H](O[C@@H]2[C@@H](CC3CCCCC3)CCC[C@H]2O[C@@H]2O[C@H](CO)[C@H](O)[C@H](O[C@@H](CC3CCCCC3)C(=O)O)[C@H]2O)[C@@H](O)[C@H](O)[C@@H]1O [2f]
- Kd (E-selectin [1]): 14 µM

SMILES: C[C@@H]1O[C@@H](O[C@@H]2CCCC[C@H]2O[C@@H]2O[C@H](CO)[C@H](O)[C@H](O[C@@H](CC3CCCCC3)C(=O)O)[C@H]2O)[C@@H](O)[C@H](O)[C@@H]1O [2a]
- improvement of affinity (E-selectin [3]; GlcNAc replaced by (R,R)-cyclohexane-1,2-diol (22→2a)): five-fold
- ΔG (Gibbs Free Energy) (E-selectin [3]): -5.75 kcal/mol
- improvement of affinity (E-selectin [3]; compared to 21): 80 fold
- ΔΔG (E-selectin [3]; relative to 21 (ΔΔG21→2a)): 2.603 kcal/mol

SMILES: C[C@@H]1O[C@@H](O[C@H]2[C@H](O[C@@H]3O[C@H](CO)[C@H](O)[C@H](O[C@@H](CC4CCCCC4)C(=O)O)[C@H]3O)CCC[C@@H]2C(C)(C)C)[C@@H](O)[C@H](O)[C@@H]1O [2h]
- Kd (E-selectin [1]): 51 µM

SMILES: C[C@@H]1O[C@@H](O[C@@H]2[C@@H](CC(F)(F)F)CCC[C@H]2O[C@@H]2O[C@H](CO)[C@H](O)[C@H](O[C@@H](CC3CCCCC3)C(=O)O)[C@H]2O)[C@@H](O)[C@H](O)[C@@H]1O [2n]
- Kd (E-selectin [1]): 9.5 µM

SMILES: CCCCCC[C@H]1CCC[C@@H](O[C@@H]2O[C@H](CO)[C@H](O)[C@H](O[C@@H](CC3CCCCC3)C(=O)O)[C@H]2O)[C@@H]1O[C@@H]1O[C@@H](C)[C@@H](O)[C@@H](O)[C@@H]1O [2j]
- Kd (E-selectin [1]): 4.3 µM
- ΔG (Gibbs Free Energy) (E-selectin [1]; calculated ΔG = -RT lnKD from MST KD): -7.321 kcal/mol
- ΔΔG (E-selectin [1]; relative to 2a (ΔΔG2a→2b, ΔΔG2a→2j)): 1.57 kcal/mol

SMILES: C[C@@H]1O[C@@H](O[C@@H]2[C@@H](Cc3ccccc3)CCC[C@H]2O[C@@H]2O[C@H](CO)[C@H](O)[C@H](O[C@@H](CC3CCCCC3)C(=O)O)[C@H]2O)[C@@H](O)[C@H](O)[C@@H]1O [2e]
- Kd (E-selectin [1]): 18 µM

SMILES: COC1OC(CO)C(OC2OC(CO)C(O)C(OC3(C(=O)O)CC(O)C(NC(C)=O)C(C(O)C(O)CO)O3)C2O)C(OC2OC(C)C(O)C(O)C2O)C1NC(C)=O (stereo not shown) [sLe^x (1), sialyl Lewis^x]
- Kd (E-selectin [2]): 877 µM
- entropy term −TΔS° (E-selectin [4]): 5.4 kcal/mol

SMILES: CC(C)C[C@H]1CCC[C@@H](O[C@@H]2O[C@H](CO)[C@H](O)[C@H](O[C@@H](CC3CCCCC3)C(=O)O)[C@H]2O)[C@@H]1O[C@@H]1O[C@@H](C)[C@@H](O)[C@@H](O)[C@@H]1O [2m]
- Kd (E-selectin [1]): 6 µM

SMILES: C[C@@H]1O[C@@H](O[C@@H]2[C@@H](CCCc3ccccc3)CCC[C@H]2O[C@@H]2O[C@H](CO)[C@H](O)[C@H](O[C@@H](CC3CCCCC3)C(=O)O)[C@H]2O)[C@@H](O)[C@H](O)[C@@H]1O [2k]
- Kd (E-selectin [1]): 28 µM

SMILES: CCCC[C@H]1CCC[C@@H](O[C@@H]2O[C@H](CO)[C@H](O)[C@H](O[C@@H](CC3CCCCC3)C(=O)O)[C@H]2O)[C@@H]1O[C@@H]1O[C@@H](C)[C@@H](O)[C@@H](O)[C@@H]1O [2i]
- Kd (E-selectin [1]): 5.4 µM

SMILES: C[C@@H]1O[C@@H](O[C@@H]2[C@@H](c3ccccc3)CCC[C@H]2O[C@@H]2O[C@H](CO)[C@H](O)[C@H](O[C@@H](CC3CCCCC3)C(=O)O)[C@H]2O)[C@@H](O)[C@H](O)[C@@H]1O [2g]
- Kd (E-selectin [1]): 8.8 µM
